Experimental data reported in patent US6737397B1, “Control of cancer growth through the interaction of [MET5]-enkephalin and the zeta receptor” (The Penn State Research Foundation, priority 1996, dated 2004).
Several values for one entry are separate records, joined by “and”; a condition that tells them apart may be missing. Equal values may be shown once. Read-outs that look alike come from different tables or passages of the source. Marks after values point to notes of the source that are not given here.

How the values were obtained:
ζ opioid receptor = ζ opioid receptor (Homo sapiens, UniProt Q9NZT2)
Description: Receptor binding assays were performed according to procedures reported elsewhere [8] with some slight modifications. […] Six assays were performed to establish binding kinetics in control tumor tissue, whereas three independent assays were conducted on tumors from mice for comparison of OGF and control groups.
Receptor binding data were analyzed with a Lundon 1 (Saturation Isotherm Binding Analysis) computer program (Lundon Software, Chagrin Falls, Ohio) and Prism Software (San Diego, Calif.). Both analyses utilized non-linear least-squares regression. Saturation curves and Scatchard plots were computed directly by these programs.
Mean binding affinities and capacities for tumor tissue from animals in the OGF and control groups were compared using analysis of variance and Newman-Keuls tests.

ζ-opioid receptor [1] = target: T1, ζ-opioid receptor (Homo sapiens, UniProt Q9NZT2); settings: for Bmax, fmol/mg protein: subcellular fractionation, P1 nuclear fraction
T1 sequence (Q9NZT2 1-677): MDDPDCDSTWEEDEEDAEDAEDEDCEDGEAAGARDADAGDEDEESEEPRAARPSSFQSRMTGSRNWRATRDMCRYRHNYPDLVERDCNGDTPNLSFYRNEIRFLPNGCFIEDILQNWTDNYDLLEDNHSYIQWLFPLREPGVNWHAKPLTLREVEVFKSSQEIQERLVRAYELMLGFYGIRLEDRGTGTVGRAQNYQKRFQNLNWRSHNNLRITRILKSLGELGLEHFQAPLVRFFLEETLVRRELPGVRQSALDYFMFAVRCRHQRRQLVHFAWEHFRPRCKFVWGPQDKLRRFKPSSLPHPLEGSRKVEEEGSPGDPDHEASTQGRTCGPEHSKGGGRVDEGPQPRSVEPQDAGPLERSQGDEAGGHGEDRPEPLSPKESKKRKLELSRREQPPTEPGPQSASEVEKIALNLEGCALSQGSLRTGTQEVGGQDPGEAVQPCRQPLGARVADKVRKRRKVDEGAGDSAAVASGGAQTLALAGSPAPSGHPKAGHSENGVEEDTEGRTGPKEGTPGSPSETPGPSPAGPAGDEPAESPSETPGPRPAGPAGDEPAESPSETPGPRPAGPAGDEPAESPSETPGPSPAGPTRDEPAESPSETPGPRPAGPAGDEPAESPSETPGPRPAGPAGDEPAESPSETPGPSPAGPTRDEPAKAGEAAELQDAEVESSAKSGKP

ζ-opioid receptor [2] = target: T1, ζ-opioid receptor
ζ-opioid receptor [3] = target: T1, ζ-opioid receptor; settings: nuclear preparation of cultured HT-29 cells
COLO 205 cells = assay: Growth assay (cell counts) of COLO 205 human colon cancer cells; assay type: cell-based; settings: 10^−6 M, 48 hr
Description: (§1) HT-29, WiDr, and COLO 205 cell lines were obtained from the American Type Culture Collection (Rockville, Md.). HT-29 cells were grown in McCoy's 5A media (modified), WiDr cells in Minimum Essential Media, and COLO 205 cells in RPMI 1640 media; all media contained 10% fetal calf serum, 2 mM […], 1.2% sodium bicarbonate and antibiotics (11 Units/ml penicillin, 10 μg/ml streptomycin, 10 μg/ml neomycin) in a humidified atmosphere of 7% CO2/93% air at 37° C. In some examples, cultures of HT-29 cells were maintained in McCoy's 5A media without fetal calf serum.
(§2) Cells were seeded at equivalent amounts into 75 cm^2 flasks or into 9.6 cm^2 wells (6-well plates, Falcon) and were counted 24 hr later to determine plating efficiency. Drugs or sterile water were added beginning 24 hr after seeding (=0 hours) and both media and drugs were changed daily. All drugs were prepared in sterile water and dilutions represent final concentrations of the compounds. At appropriate times, cells were harvested with 0.05% trypsin/0.53 mM EDTA, centrifuged, and counted with a hemacytometer at 200×. Cell viability was determined by trypan blue staining. At least 2 aliquots/flask or well were counted and 2 flasks or wells/time point/treatment group were sampled.
(§3) To examine the ubiquity of opioid activity with respect to colon cancer, two other colon cancer cell lines were investigated: COLO 205 and WiDr.

WiDr cells = assay: Growth assay (cell counts) of WiDr human colon cancer cells; assay type: cell-based; settings: 10^−6 M, 48 hr
Description: as §1, §2, §3

HT-29 cells = assay: Growth assay (cell counts) of HT-29 human colon cancer cells in culture; assay type: cell-based
Description: In some examples, cultures of HT-29 cells were maintained in McCoy's 5A media without fetal calf serum.
as §2

[4] = test system: HT-29 human colon cancer cells; assay: HT-29 human colon cancer xenografts in nude mice treated with OGF and/or naloxone
[5] = test system: BxPC-3 human pancreatic tumor cells; assay: BxPC-3 human pancreatic tumor xenografts in nude mice treated with OGF; assay type: in vivo
Description: BxPC-3 human pancreatic cancer cells, purchased from the American Type Culture Collection (Rockville, Md.), were grown in RPMI media containing 10% fetal calf serum, penicillin (10 units/ml), and streptomycin (100 μg/ml) in an atmosphere of 93% air and 7% CO2 at 37° C. Cell viability was determined by the trypan blue exclusion test. Three-to-4-week-old male athymic nude mice, obtained from Charles River Laboratories (Wilmington, Mass.), were injected subcutaneously over the right shoulder with BxPC-3 cells (log phase) in a 0.5 ml suspension of RPMI media. The day of tumor cell inoculation was considered day 0. Mice were evaluated daily and the date that the tumor became ‘visible’ was recorded. Individual tumors were measured with vernier calipers every 2 days. Measurements of the largest perpendicular dimensions were recorded and tumor volume was calculated using the formula: length×width^2×0.5[25]. The time of ‘initial’ appearance of a tumor wag considered to be the day when tumor volume was 5 mm^3 of greater. All mice were euthanized and necropsied 30 days after tumor cell inoculation. Tumor tissues for receptor binding assays, radioimmunoassays, and immunocytochemistry were rapidly frozen in liquid nitrogen and stored at −70° C. until assayed.
Drug treatment was initiated on the day of tumor cell inoculation. […] Injections were administered in the right or left flank. Animals were weighed weekly and appropriate dosage adjustments made.
The latencies for visible and initial tumor appearance, as well as the appearance of a tumor volume measuring 62.5 mm^3 (when each perpendicular measurement was 5 mm), were recorded.
Latencies for visible and initial appearance as well as tumors ≧62.5 mm were analyzed using one way analysis of variance; subsequent comparisons were made with the Newman-Keuls tests. The number of mice with initial tumor appearance on selected days was expressed as a ratio of the total number of mice in the group, and comparisons of percentages were made with chi-square tests.

ζ-opioid receptor [6] = target: T1, ζ-opioid receptor; assay: Competition for binding of [3H][Met5]enkephalin (4.0 nM) in nuclear homogenates of HT-29 human colon tumors; design: from tissue; host or cells: HT-29 human colon tumor xenografts grown in athymic nude mice; nuclear (P1) and other subcellular fractions
[7] = target: T2, [Met5]-enkephalin receptor (Homo sapiens, UniProt Q9NZT2); assay: [3H]-[Met5]-enkephalin binding on HT-29 cells after 48 h exposure to OGF or NTX (receptor regulation)
T2 construct: endogenous in cells; host or cells: HT-29 human colon cancer cells, log phase, nuclear pellet (P1)
T2 sequence (Q9NZT2 1-677): T1 sequence (Q9NZT2 1-677)
Description: Log phase cells were incubated in 0.05% trypsin for at least 30 min with gentle agitation at 37° C. in order to reduce clumping of cells and facilitate isolation of cell nuclei. Preparations were homogenized (Polytron, setting 6, 2×10 sec) in a 1:20 (wt/vol) solution (=Tris/all) of cold 50 mM Tris HCl buffer with 0.1 mg/ml bacitracin, 1 μg/ml leupeptin, 60 nM thiorphan, 1 mM EGTA, and 0.6 mg/l PMSF, pH 7.4, at 4° C. […] Protein homogenates of P1 were diluted with Tris/all and incubated at room temperature (22° C.) for 20 min to remove endogenous opioid peptides.
The final volume of the incubation mixture was 1 ml. The incubation was terminated by rapid filtration through Whatman GF-B filters under vacuum pressure with a Brandel Cell Harvester. Filters were rinsed three times with 5 ml volumes of ice-cold 50 mM Tris buffer, dried at 60° C. for 1 hour, and counted in a 2:1 solution of Aquasol-toluene by liquid scintillation spectrometry (Beckman LS-2800). […] Duplicate tubes of homogenates were assayed for each-concentration utilized. Protein concentrations were determined by the BioRad method with gamma globulin as a standard.

ζ-opioid receptor [8] = target: T1, ζ-opioid receptor; assay: Effect of cations and guanyl nucleotides on [3H]-[Met5]-enkephalin binding to HT-29 nuclear homogenates; design: from tissue; host or cells: HT-29 human colon tumor xenografts grown in athymic nude mice; nuclear (P1) and other subcellular fractions; settings: 5, 100, 200, or 500 μM
Description: Histograms represent the percent of specific binding±SE.

μ-opioid receptor = target: T3, μ-opioid receptor (Homo sapiens, UniProt P35372); assay: [3H]DAMGO binding to HT-29 nuclear (P1) and membrane (P2) homogenates; settings: P2 fraction
T3 construct: from tissue; host or cells: HT-29 human colon tumor xenografts from nude mice; nuclear (P1) and membrane (P2) homogenates
T3 sequence (P35372 whole entry): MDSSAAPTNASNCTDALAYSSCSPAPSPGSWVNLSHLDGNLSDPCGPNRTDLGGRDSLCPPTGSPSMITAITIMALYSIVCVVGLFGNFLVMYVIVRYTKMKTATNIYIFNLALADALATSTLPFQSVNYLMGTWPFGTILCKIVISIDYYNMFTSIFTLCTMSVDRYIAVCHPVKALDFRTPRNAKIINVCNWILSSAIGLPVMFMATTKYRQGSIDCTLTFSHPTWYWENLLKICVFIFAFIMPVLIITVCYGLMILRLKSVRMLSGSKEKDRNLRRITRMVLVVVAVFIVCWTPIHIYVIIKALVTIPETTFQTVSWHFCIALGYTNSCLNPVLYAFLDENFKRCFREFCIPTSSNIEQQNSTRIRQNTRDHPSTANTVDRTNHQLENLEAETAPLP

[9] = 5 mg/kg OGF three times daily s.c.

With [^3H]-[Met^5]-enkephalin the “binding capacity (Bmax)” value (ζ opioid receptor; tumor tissue from control animals) was 46.8±4.0 fmol/mg protein, the “mean binding capacity (Bmax)” value (ζ-opioid receptor [1]; P1 nuclear homogenates of HT-29 tumors, 150 min, 22° C., pH 7.4) was 364.8±25.7 fmol/mg protein and the “Bmax, fmol/mg protein” value (ζ-opioid receptor [1]) was 256.0±12.6 fmol/mg protein. The “Bmax, fmol/mg protein” value (ζ-opioid receptor [1]; listed as [^3H][Met^5]enkephalin) was 256.0 ± 12.6 fmol/mg protein, the “Bmax, fmol/mg protein” value (ζ-opioid receptor [2]; Patient 1, splenic flexure adenocarcinoma) was 34.3 ± 9.0 fmol/mg protein and the “Bmax, fmol/mg protein” value (ζ-opioid receptor [2]; Patient 2, sigmoid adenocarcinoma) was 32.7 ± 1.4 fmol/mg protein. The “mean binding capacity (Bmax)” value (ζ-opioid receptor [2]; data from both patients averaged) was 33.5±4.1 fmol/mg protein and the “binding capacity (Bmax)” value (ζ-opioid receptor [3]) was 43 fmol/mg protein.

With [Met^5]-enkephalin the “fewer cells than control cultures” value (COLO 205 cells) was 58%, the “fewer cells than control cultures” value (WiDr cells) was 41% and the “cell number greater after removal than in cultures maintained with peptide” value (HT-29 cells) was “more than 80%”. The “cell number versus controls” value (HT-29 cells) was “comparable to controls”, the “decrease in cell number from control values” (HT-29 cells) was 35% and the “effect on cell growth in serum-free media” value (HT-29 cells) was “inhibitory effect on cell growth”. For the same molecule, the “more cells after removal than in cultures continuing to receive peptide” value (HT-29 cells) was 37%, the “reduction in number of colon cancer cells” value (HT-29 cells) was 41% and 56% and the “Latency for measurable tumor appearance” value ([4]; 0.5 mg/kg daily) was 28.0 ± 0.0 days. For the same molecule, the “Latency for measurable tumor appearance, days, range” value (shortened to “Latency … range”) ([4]; 0.5 mg/kg daily) was “(28) days”, the “Latency for palpable tumor” value ([4]; 0.5 mg/kg daily) was 18.6 ± 3.2 days and the “Latency for visible tumor” value ([4]; 0.5 mg/kg daily) was 22.4 ± 2.6 days. The “No. of mice with tumors 21 days after inoculation” value (shortened to “No. of mice with tumors 21 days”) ([4]; 0.5 mg/kg daily) was 2/14†, the “No. of mice with tumors 50 days after inoculation” value (“No. of mice with tumors 50 days” for short) ([4]; 0.5 mg/kg daily) was 7/14* and the “Latency for measurable tumor appearance” value ([4]; 5 mg/kg daily) was 22.2 ± 2.3 days. For the same molecule, the “Latency … range” value ([4]; 5 mg/kg daily) was “(13-22) days”, the “Latency for palpable tumor” value ([4]; 5 mg/kg daily) was 19.2 ± 2.2 days and the “Latency for visible tumor” value ([4]; 5 mg/kg daily) was 20.2 ± 2.2 days. The “No. of mice with tumors 21 days” value ([4]; 5 mg/kg daily) was 4/14†, the “No. of mice with tumors 50 days” value ([4]; 5 mg/kg daily) was 6/14† and the “Latency for measurable tumor appearance” value ([4]; 25 mg/kg daily) was 24.0 ± 4.5 days. The “Latency … range” value ([4]; 25 mg/kg daily) was “(12-32) days”, the “Latency for palpable tumor” value ([4]; 25 mg/kg daily) was 22.0 ± 4.5 days and the “Latency for visible tumor” value ([4]; 25 mg/kg daily) was 23.0 ± 4.5 days. For the same molecule, the “No. of mice with tumors 21 days” value ([4]; 25 mg/kg daily) was 2/14†, the “No. of mice with tumors 50 days” value ([4]; 25 mg/kg daily) was 6/14† and the “animals with a tumor” value ([4]; 50 days after inoculation, 0.5, 5, or 25 mg/kg OGF) was 36-50%. For the same molecule, the “mice that never developed xenografts of colon cancer” value ([4]; all OGF doses, 7-wk experimental period) was 57%, the “mice with a measurable tumor” value ([4]; by day 21, 0.5, 5, or 25 mg/kg OGF) was 14-28% and the “dose-response of tumor incidence and delay in oncogenesis” value ([4]; mouse, in vivo) was “no distinct dose-response effect”. The “Number of mice with tumors 7 days after tumor cell inoculation” value ([5]; 5 mg/kg OGF three times daily) was 0/13*, the “Number of mice with tumors 14 days after tumor cell inoculation” value ([5]; 5 mg/kg OGF three times daily) was 5/13* and the “Number of mice with tumors 15 days after tumor cell inoculation” value ([5]; 5 mg/kg OGF three times daily) was 8/13*. For the same molecule, the “Number of mice with tumors 22 days after tumor cell inoculation” value ([5]; 5 mg/kg OGF three times daily) was 12/13, the “Number of mice with tumors 30 days after tumor cell inoculation” value ([5]; 5 mg/kg OGF three times daily) was 12/13 and the “interval from inoculation to initial tumor appearance longer than sterile water” value ([5]; 5 mg/kg OGF three times daily) was 43%. The “latency until tumor reached 62.5 mm^3 longer than control group” value ([5]; 5 mg/kg OGF three times daily) was about 41%, the “visible tumors developed later than controls” value ([5]; 5 mg/kg OGF three times daily) was “more than 3 days” and the “Latency (days) for tumors of 62.5 mm^3 in size” value [5, 9] was 17.2 ± 1.1 days. For the same molecule, the “Latency (days) for visible tumor” value [5, 9] was 12.7 ± 1.4 days, the “Latency (days) for initial tumor appearance” value ([5]; 5 mg/kg OGF three times daily s.c., listed as OGF) was 15.2 days and 15.2 ± 1.2 days and the “animals without a neoplasia” value ([5]; day 15) was about 40%. For the same molecule, the “mice with a tumor measuring ≧5 mm^3” value ([5]; fifteen days after tumor cell inoculation) was “less than 62%”, the “mean tumor volumes versus control group” value ([5]; within the 30 days of the experiment) was “no significant differences” and the “binding affinity versus control group” value (ζ opioid receptor; tumors from OGF-treated mice) was “did not differ”. For the same molecule, the “binding sites reduced from control levels” value (ζ opioid receptor; tumors from OGF-treated mice) was 58%, the “Bmax, fmol/mg protein” value (ζ opioid receptor; tumors from mice treated with 5 mg/kg OGF three times daily) was 24.6 ± 5.2 fmol/mg protein and the “greater ability to displace [3H]-[Met5]-enkephalin than the next ranking compound” value (ζ-opioid receptor [6]) was 2.3 fold. The “Bmax of [3H]-[Met5]-enkephalin” value ([7]; HT-29 cells after 48 h of exposure to the treatment) was 18.6 ± 1.1 and the “Bmax reduced versus control cells” value ([7]; chronic exposure (48 h)) was 50%.

In the case of `Nc1nc2c(ncn2C2OC(COP(=O)([O-])OP(=O)([O-])NP(=O)([O-])[O-])C(O)C2O)c(=O)[nH]1.[Li+].[Li+].[Li+].[Li+]` (stereo not drawn) [GppNHp, guanylyl-imidodiphosphate (GppNHp) tetralithium salt], the “effect on binding of [3H]-[Met5]-enkephalin” value (ζ-opioid receptor [8]) is reported as “not markedly reduced”.

`C[C@@H](NC(=O)[C@@H](N)Cc1ccc(O)cc1)C(=O)NCC(=O)N(C)[C@@H](Cc1ccccc1)C(=O)NCCO` [[3H]DAMGO] was tested, and the “Bmax, fmol/mg protein” value (μ-opioid receptor) was 20.9 ± 4.8 fmol/mg protein.
